According to publication PMC6105163, “Abaloparatide Exerts Bone Anabolic Effects with Less Stimulation of Bone Resorption-Related Factors: A Comparison with Teriparatide” (Calcified Tissue International, 2018):

What was measured:
[1] = tested on: human osteoblastic cell line SaOS-2; experiment: cAMP accumulation assay in SaOS-2; format: cell-based; conditions: for cAMP accumulation, in words: SaOS-2, 10 min (Fig. 1a), n = 3 replicate wells; for EC50 / Emax, cAMP accumulation: SaOS-2, 10 min, 2 mmol/L 3-isobutyl-1-methylxanthine, mean ± s.e.m., three independent experiments, each triplicate; for EC50: cAMP-Screen System, P = 0.13 ABL vs TPTD; for Emax, cAMP accumulation: P = 0.96 ABL vs TPTD
Description: The human osteoblastic cell line SaOS-2 and the rat osteoblastic cell line UMR-106 were purchased from the European Collection of Cell Cultures (Wiltshire, UK). SaOS-2 and UMR-106 were maintained in growth medium (GM): McCoy’s 5A (for SaOS-2) or Dulbecco’s Modified Eagle’s Medium (for UMR-106) supplemented with 10% FBS and 1% penicillin/streptomycin at 37 °C with 5% CO2. To initiate cell differentiation, cells were grown in differentiation medium (DM): GM containing 50 µg/mL ascorbic acid, 10 mmol/L β-glycerophosphate, and 10 nmol/L dexamethasone. The culture medium was exchanged every 6 days or less.
Cells were cultured in 96-well plates at a density of 4 × 10^4 cells/well in GM overnight. The medium was replaced with serum-free GM (containing 0.1% BSA instead of 10% FBS) for culture under starvation conditions. Twenty-four hours after the start of starvation, ABL, TPTD, or vehicle (water containing 0.1% BSA) were added to the cells with 2 mmol/L of 3-isobutyl-1-methylxanthine for 10 min. Cells were lysed and accumulated cAMP was measured using the cAMP-Screen System (Applied Biosystems, Waltham, MA, USA) according to the manufacturer’s instructions.
All data are expressed as means ± s.e.m. For calculation of EC50 and Emax, 4-parameter logistic curve fitting was performed. Student’s t test was used for two-group comparisons. Dunnett’s or Tukey’s test was used for multiple comparisons. Significance was inferred from P values of < 0.05. All data were analyzed using GraphPad Prism version 6.03 (GraphPad Software, La Jolla, CA, USA).

[2] = tested on: OVX rats; experiment: Bone resorption marker urine DPD/Cr in OVX rats; format: in vivo, Sprague–Dawley rats (female); conditions: once daily s.c.; for urinary DPD/Cr at 5.0 nmol/kg: day 28; for urinary DPD/Cr, significance: day 28, n = 8 or 9
Source text: Ten-week-old female Sprague–Dawley rats were purchased from Charles River Laboratories Japan, Inc. (Kanagawa, Japan) and ovariectomized at 12 weeks old. Thirty-five days after surgery, rats received once daily subcutaneous injection of ABL, TPTD, or vehicle (saline containing 0.1% heat-inactivated rat serum) for 28 days. Day 0 indicates the day when administration was started. On day 26, rats were anesthetized with intraperitoneally administered pentobarbital sodium and the lumbar spine (L4 and L5) BMD was measured with a PIXImus2 (GE Healthcare, Chicago, IL). Blood (collected from the tail vein) and urine samples were obtained on day 28. Prior to collection, rats were fasted for 15–17 h. Rats were euthanized after the blood and urine collection, and the lumbar spine was removed for the measurement of bone strength. All experimental procedures were approved by the Animal Care and Use Committee of Teijin Institute for Bio-Medical Research.
Serum P1NP concentration was measured with a Rat/Mouse PINP EIA kit (Immunodiagnostic Systems, Boldon, UK). Urine DPD concentration was measured with an Osteolinks DPD kit (Quidel, San Diego, CA, USA). Urine creatinine (Cr) concentration was measured with a 7180 Autoanalyzer (Hitachi High-Technologies Corporation, Tokyo, Japan).

[3] = tested on: SaOS-2; experiment: Bone resorption-related factor gene expression (qRT-PCR); format: cell-based, human; conditions: 100 nmol/L; for M-CSF mRNA expression / OPG mRNA expression / RANKL mRNA expression / RANKL/OPG mRNA expression: continuous treatment (Fig. 2b); for expression of bone resorption-related factors such as RANKL/OPG and M-CSF: human osteoblastic cells
Description: SaOS-2 was cultured in 48-well plates at a density of 5 × 10^4 cells/well in DM for 10 days. The medium was replaced with serum-free DM for culture under starvation conditions. Twenty-four hours after the start of starvation, cells were treated with ABL and TPTD at a concentration of 100 nmol/L. Six hours after treatment, cells were washed with PBS twice, and cultured with peptide-free or peptide-containing medium for the rest of the experimental period.
(§1) Cells were lysed and total RNA was extracted using an RNeasy Mini Kit (Qiagen, Valencia, CA, USA). RNA was reverse-transcribed into cDNA using the SuperScript III First-Strand Synthesis System for RT-PCR (Invitrogen, Carlsbad, CA, USA). Quantitative RT-PCR was performed on a 7500 Real-Time PCR System (Applied Biosystems) using Power SYBR Green PCR Master Mix (Thermo Fisher Scientific, Waltham, MA, USA). The primers used in this study were as follows: 5′-CGATGGTGGATGGCTCATG-3′ (forward) and 5′-ACCAGATGGGATGTCGGTG-3′ (reverse) for RANKL, 5′-[…]-3′ (forward) and 5′-[…]-3′ (reverse) for M-CSF, 5′-[…]-3′ (forward) and 5′-[…]-3′ (reverse) for OPG, 5′-[…]-3′ (forward) and 5′-[…]-3′ (reverse) for IGF1, 5′-[…]-3′ (forward) and 5′-[…]-3′ (reverse) for osteocalcin, 5′-[…]-3′ (forward) and 5′-[…]-3′ (reverse) for DMP1, 5′-[…]-3′ (forward) and 5′-[…]-3′ (reverse) for SOST, 5′-[…]-3′ (forward) and 5′-[…]-3′ (reverse) for DKK1, 5′-GTGAAGGTCGGAGTCAACG-3′ (forward) and 5′-TGAGGTCAATGAAGGGGTC-3′ (reverse) for GAPDH.

[4] = tested on: SaOS-2; experiment: Bone formation-related factor gene expression (qRT-PCR); format: cell-based, human; conditions: for IGF-1 gene expression / osteocalcin gene expression: 100 nmol/L once daily 11 days, 6-h exposure per 24-h cycle (Fig. 3b), n = 3; for IGF-1 and osteocalcin expression, continuous treatment: data not shown
Description: SaOS-2 was cultured in 12-well plates at a density of 2 × 10^5 cells/well in DM. Concomitant with the initiation of cell differentiation, cells were treated with 100 nmol/L of ABL and TPTD once daily for 11 days. The peptide exposure was limited to the first 6 h of the 24-h incubation cycle, and the medium was replaced with peptide-free medium for the rest of the cycle after washing with PBS twice.
as §1

[5] = tested on: osteocyte-like SaOS-2; experiment: WNT signaling antagonist gene expression (qRT-PCR); format: cell-based, human; conditions: 100 nmol/L, n = 3; for DKK1 (gene expression and protein secretion) / sclerostin (gene expression and protein secretion): continuous treatment (Fig. 4e, f), qRT-PCR and ELISA; for DKK1 gene expression / sclerostin gene expression: treatment limited to first 6 h (Fig. 4c), day 30 cells
Description: (§2) SaOS-2 was cultured in 48-well plates at a density of 5 × 10^4 cells/well in DM for 30 days. Cells were treated with ABL and TPTD at a concentration of 100 nmol/L. Six hours after treatment, cells were washed with PBS twice, and cultured with peptide-free or peptide-containing medium for the rest of the experimental period.
as §1

[6] = tested on: osteocyte-like SaOS-2; experiment: Sclerostin and DKK1 protein secretion (ELISA); format: cell-based, human; conditions: 100 nmol/L, transient (Fig. 4d); efficacies of ABL and TPTD not significantly different; n = 3
Description: as §2
Human Quantikine M-CSF, Sclerostin, and DKK1 ELISA kits (R&D Systems, Minneapolis, MN, USA) were used to quantify M-CSF, sclerostin, and DKK1, respectively, in the cell supernatants according to the manufacturer’s instructions.

| Substance | cAMP accumulation, in words [1] | EC50 [1] | Emax, cAMP accumulation [1] | urinary DPD/Cr at 5.0 nmol/kg [2] | urinary DPD/Cr, significance [2] | M-CSF mRNA expression ([3]; n = 3) | OPG mRNA expression ([3]; n = 3) | RANKL mRNA expression ([3]; n = 3) | RANKL/OPG mRNA expression ([3]; n = 3) | expression of bone resorption-related factors such as RANKL/OPG and M-CSF [3] | IGF-1 gene expression [4] | osteocalcin gene expression [4] | IGF-1 and osteocalcin expression, continuous treatment [4] | DKK1 (gene expression and protein secretion) [5] | sclerostin (gene expression and protein secretion) [5] | DKK1 gene expression [5] | sclerostin gene expression [5] | DKK1 protein secretion [6] | sclerostin protein secretion [6] | also measured |
| --- | --- | --- | --- | --- | --- | --- | --- | --- | --- | --- | --- | --- | --- | --- | --- | --- | --- | --- | --- | --- |
| [Glu^22,25, Leu^23,28,31, Aib^29, Lys^26,30] human PTHrP(1–34)–NH2 [Abaloparatide] | dose-dependently increased cAMP | 5.1 ± 0.4 nM | 21.9 ± 1.4 nmol/L | a slight increase | no significant differences | similarly promoted | inhibited | similarly promoted | similarly promoted | increased | increased | increased | could hardly detect | similarly inhibited | similarly inhibited | similarly suppressed | similarly suppressed | inhibited | inhibited | EC50 and Emax of ABL compared with TPTD ([1]; SaOS-2, Table 1): no significant differences; M-CSF expression, ABL vs TPTD ([3]; transient 6-h treatment): less than TPTD; RANKL/OPG expression, ABL vs TPTD ([3]; transient 6-h treatment): less than TPTD; bone resorption-related factors mRNA, ABL vs TPTD ([3]; transient treatment (first 6 h, then washed out) (Fig. 2d), n = 3): significantly attenuated as compared with TPTD; IGF-1 and osteocalcin effects, ABL vs TPTD ([4]; 100 nmol/L, repeating 6-h exposure cycle, 11 days (Fig. 3b)): not significantly different |
| human PTH(1–34) [Teriparatide] | dose-dependently increased cAMP | 3.9 ± 0.5 nM | 22.0 ± 1.5 nmol/L | a slight increase | no significant differences | similarly promoted | inhibited | similarly promoted | similarly promoted | increased | increased | increased | could hardly detect | similarly inhibited | similarly inhibited | similarly suppressed | similarly suppressed | inhibited | inhibited | – |
